Measurements from patent publication US7947742B2 (Civitas Therapeutics, Inc., priority 2002, dated 2011).
Like-named read-outs stand apart in the source and are kept apart here.

Tests used:
[1] = Stability of epinephrine in dry powders with antioxidants, loosely capped vials (Example 10), HPLC; format: physicochemical; settings: 40° C. and 15% RH, compared to control containing no antioxidants
Excerpt: Solution preparation. […] The leucine and the antioxidant were present at a combined 82% of the total solids concentration. The two phases were static-mixed immediately prior to being spray dried.
Solutions containing BHT, Vitamin E and Vitamin C were made using a slightly different procedure as follows. […] Additional ethanol pure solvent was static-mixed with the 50/50 ethanol/water solution to form a 70/30 (v/v) ethanol/water solution. The Vitamin E formulation at the 0.3% and 0.9% loadings were prepared as follows. The Vitamin E at these levels was dissolved in the complete organic phase and static-mixed with the aqueous phase which prevented the Vitamin E from precipitating out of solution. Vitamin C was only dissolved in the aqueous phase at 0.9% and the three other powders containing vitamin C at 0.6, 0.9 and 2.0% was prepared with Vitamin C dissolved in the organic phase. Spray drying of all of the powders was performed as described for Formulation IX using the procedure of Example 7.
Stability conditions and analysis. 50 mg of powder was placed into a 7 mL scintillation vial. The vial was loosely capped and placed inside an oven at 40° C. and approximately 15% relative humidity (RH). Samples were analyzed immediately (T0) and after 1, 2, 4 and 8 weeks of such storage. Controls containing no antioxidants (i.e., Formulation IX) were also placed at 45° C. and 50° C. loosely capped.

[2] = Phase I human pharmacokinetics of single doses (Example 15); format: in vivo, humans
Experimental: The following example describes a clinical study evaluating inhaled dry powder porous particles containing epinephrine (Formulation VII, as described in Table A). The study was a Phase I, randomized, double blind, placebo-controlled, dose escalation study of the safety, tolerability and pharmacokinetics (PK) of single doses of dry powder epinephrine in healthy male subjects. […] Safety and PK information was obtained for at least 2 hours following dosing.

[3] = Rat pharmacokinetics, plasma epinephrine after intratracheal insufflation or IM injection (Example 12); format: in vivo, Sprague Dawley rats; settings: rats, injected intramuscularly with epinephrine in solution, up to 20 minutes
Experimental: (§1) Blood samples were taken from the rats via jugular catheters at time points 0, 2.5, 5, 10, and 20 minutes following dosing. Measurements of heart rate were also made at the same time points.
Dose Administration. The powder was delivered to the lungs of rats by an insufflation technique. The insufflator device was from PennCentury (Philadelphia, Pa.). The delivery tube of the insufflator was inserted intratracheally through the mouth until the tip of the tube was about a centimeter from the carina (first bifurcation). […] The volume of […] used to deliver the powder from the sample chamber was 3 mL, which was achieved from a charged syringe. The syringe was recharged and discharged two more times for a total of three discharges per powder dose in order to decrease or eliminate powder residues in the sample chamber.
Study Design. The jugular vein of animals used in pharmacokinetics studies was catheterized with PE90 on the day before the dosing and sampling was performed. A total of six animals were used in this study. For anesthesia (catheter placement and powder dosing), a mixture of ketamine (25 mg), xylazine (3 mg), and acepromazine (0.2 mg) was injected intraperitoneally (IP) into each animal. […] Blood was taken and heart rate was measured using a pulse oximeter attached to the right hind limb of the rats at time 0, 2.5, 5.0, 10.0, and 20.0 minutes. […]

healthy male subjects = experiment: Phase I human pharmacodynamics, potassium change from baseline (Example 15); format: in vivo, humans; settings: dry powder 800 micrograms, EpiPen 300 micrograms, standard IM 300 micrograms
Experimental: Safety and PK information was obtained for at least 2 hours following dosing.

Male Sprague Dawley rats = experiment: Rat heart rate by pulse oximeter after dosing (Example 12); format: in vivo
Experimental: as §1
Study Design. The jugular vein of animals used in pharmacokinetics studies was catheterized with PE90 on the day before the dosing and sampling was performed. A total of six animals were used in this study. For anesthesia (catheter placement and powder dosing), a mixture of ketamine (25 mg), xylazine (3 mg), and acepromazine (0.2 mg) was injected intraperitoneally (IP) into each animal. The rats were placed on a heating pad after catheter placement to recover. After powder dosing, the rats were placed back in their respective cages. Identification numbers assigned to the rats were written on their tails as well as on the cage cards. Blood was taken and heart rate was measured using a pulse oximeter attached to the right hind limb of the rats at time 0, 2.5, 5.0, 10.0, and 20.0 minutes. The blood samples were collected by syringe from the jugular vein catheter. The blood was carefully ejected into EDTA coated tubes, mixed and then centrifuged for 5 minutes at 14,000 g to separate the plasma from the cells. Plasma was placed into clean microfuge tubes and stored refrigerated until received at the laboratory. […]

Structure (SMILES): O=C1O[C@H]([C@@H](O)CO)C(O)=C1O [Ascorbic acid, ascorbic acid]
- protection against degradation of epinephrine (in words) [1]: not effective antioxidants

Structure (SMILES): Cc1cc(C(C)(C)C)c(O)c(C(C)(C)C)c1 [BHT, butylated hydroxytoluene]
- protection against degradation of epinephrine (in words) [1]: not effective antioxidants

Structure (SMILES): O=C(O)CN(CCN(CC(=O)O)CC(=O)O)CC(=O)O [EDTA, ethylenediamine tetra-acetic acid]
- protection against degradation of epinephrine (in words) [1]: good protection against degradation of epinephrine

Structure (SMILES): CNCC(O)c1ccc(O)c(O)c1 (centres unmarked) [Epinephrine, 4-[1-hydroxy-2-(methylamino)ethyl]-1,2-benzenediol]
- CMAX % CV ([2]; healthy male subjects, standard IM injection, 300 micrograms, n = 7): 66%
- Cmax ([2]; male, human, plasma, im, 300 micrograms, healthy male subjects, standard IM injection, 300 micrograms, n = 7, read-out: CMAX Mean (SD)): 0.263 ng/mL
- Tmax ([2]; male, human, plasma, im, 300 micrograms, healthy male subjects, standard IM injection, 300 micrograms, n = 7, read-out: TMAX (range)): 1 to 60 min
- Cmax ([2]; male, human, plasma, im, 300 micrograms, standard IM injection 300 micrograms, read-out: CMAX values of 2 subjects with higher values): 0.405 ng/mL
- Cmax ([2]; male, human, plasma, im, 300 micrograms, standard IM injection 300 micrograms, read-out: CMAX values of the others in the group): ≤ 0.22 ng/mL
- CMAX values of 2 subjects with higher values ([2]; standard IM injection 300 micrograms): 595 pg/mL
- Plasma epinephrine levels (in words) [3]: very low and not significantly different from room air controls
- time of maximal potassium mean change from baseline (healthy male subjects): continued to decrease through 60 minutes post-dose
- heart rate increase in one animal (Male Sprague Dawley rats; one rat intramuscularly injected, observed out to 40 minutes, 25 minutes following dosing): 340 beats/minute
- heart rate compared to baseline (in words) (Male Sprague Dawley rats; rats, IM-injected, up to 20 minutes): did not exhibit a significant increase in heart rate

Structure (SMILES): O=S([O-])S(=O)(=O)[O-].[Na+].[Na+] [Sodium metabisulfite, sodium metabisulfite]
- protection against degradation of epinephrine (in words) [1]: good protection against degradation of epinephrine
